These are literature values, as cited in patent US20250082627A1, “TOBACCO HARM REDUCTION AND PAIN RELIEF PRODUCTS AND METHODS THEREOF” (Ready Mix Naturals, LLC, priority 2023, published 2025).

Data set [1] addresses TRPV1 (Homo sapiens, UniProt Q8NER1). As to conditions: among phytocannabinoids.
The target in data set [2] is TRPA1 (Homo sapiens, UniProt O75762).
Data set [3] deals with T1, TRPV2 (Homo sapiens, UniProt Q9Y5S1).
T1 sequence (Q9Y5S1 1-764): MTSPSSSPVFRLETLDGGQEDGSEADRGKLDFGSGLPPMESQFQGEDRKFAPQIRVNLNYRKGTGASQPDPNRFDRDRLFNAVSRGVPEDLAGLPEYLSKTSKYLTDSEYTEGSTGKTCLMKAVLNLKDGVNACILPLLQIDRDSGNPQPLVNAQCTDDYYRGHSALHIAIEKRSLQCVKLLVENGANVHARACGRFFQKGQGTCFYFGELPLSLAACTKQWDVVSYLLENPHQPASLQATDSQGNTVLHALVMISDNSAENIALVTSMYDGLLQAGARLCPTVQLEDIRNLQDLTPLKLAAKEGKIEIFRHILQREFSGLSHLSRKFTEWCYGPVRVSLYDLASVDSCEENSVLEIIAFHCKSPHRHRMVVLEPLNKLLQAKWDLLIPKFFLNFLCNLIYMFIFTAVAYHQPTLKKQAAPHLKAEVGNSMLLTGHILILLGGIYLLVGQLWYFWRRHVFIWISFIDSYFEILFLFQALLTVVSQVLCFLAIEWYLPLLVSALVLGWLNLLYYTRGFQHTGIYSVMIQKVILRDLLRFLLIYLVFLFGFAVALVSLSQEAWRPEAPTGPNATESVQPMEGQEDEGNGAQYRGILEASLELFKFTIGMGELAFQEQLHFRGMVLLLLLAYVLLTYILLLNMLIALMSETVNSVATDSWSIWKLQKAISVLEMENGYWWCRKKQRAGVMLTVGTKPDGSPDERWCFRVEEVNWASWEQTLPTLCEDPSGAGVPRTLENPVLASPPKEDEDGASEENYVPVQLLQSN
As to conditions: among phytocannabinoids.

Chain of TRPA1 (O75762 whole entry, species assumed): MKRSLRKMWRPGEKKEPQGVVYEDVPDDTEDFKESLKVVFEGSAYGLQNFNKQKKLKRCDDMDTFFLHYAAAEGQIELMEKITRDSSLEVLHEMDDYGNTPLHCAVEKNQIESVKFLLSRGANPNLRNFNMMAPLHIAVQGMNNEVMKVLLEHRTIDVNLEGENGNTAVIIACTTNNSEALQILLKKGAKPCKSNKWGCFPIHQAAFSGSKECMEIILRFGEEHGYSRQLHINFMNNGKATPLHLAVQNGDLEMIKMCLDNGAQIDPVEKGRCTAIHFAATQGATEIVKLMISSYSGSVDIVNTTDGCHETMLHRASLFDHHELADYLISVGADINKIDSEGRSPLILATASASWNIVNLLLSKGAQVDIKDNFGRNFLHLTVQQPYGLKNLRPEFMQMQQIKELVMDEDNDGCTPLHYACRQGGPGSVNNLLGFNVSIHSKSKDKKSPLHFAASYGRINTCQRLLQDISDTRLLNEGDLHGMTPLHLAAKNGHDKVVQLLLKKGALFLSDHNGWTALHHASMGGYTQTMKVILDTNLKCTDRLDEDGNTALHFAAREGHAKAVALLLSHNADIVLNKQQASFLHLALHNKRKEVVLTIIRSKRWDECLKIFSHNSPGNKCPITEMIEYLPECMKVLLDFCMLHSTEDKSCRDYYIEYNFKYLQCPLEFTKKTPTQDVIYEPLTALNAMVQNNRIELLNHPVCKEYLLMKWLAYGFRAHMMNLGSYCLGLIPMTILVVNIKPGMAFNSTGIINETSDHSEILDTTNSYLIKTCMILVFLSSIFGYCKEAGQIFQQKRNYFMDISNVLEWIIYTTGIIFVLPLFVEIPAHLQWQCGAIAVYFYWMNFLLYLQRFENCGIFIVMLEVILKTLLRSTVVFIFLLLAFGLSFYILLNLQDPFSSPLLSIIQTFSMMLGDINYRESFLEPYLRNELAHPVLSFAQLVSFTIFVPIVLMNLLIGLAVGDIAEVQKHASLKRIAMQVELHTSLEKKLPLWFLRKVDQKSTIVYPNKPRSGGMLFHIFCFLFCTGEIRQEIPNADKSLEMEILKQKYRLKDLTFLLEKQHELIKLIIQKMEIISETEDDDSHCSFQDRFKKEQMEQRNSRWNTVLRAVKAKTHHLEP
Chain of TRPV1 (Q8NER1 whole entry, species assumed): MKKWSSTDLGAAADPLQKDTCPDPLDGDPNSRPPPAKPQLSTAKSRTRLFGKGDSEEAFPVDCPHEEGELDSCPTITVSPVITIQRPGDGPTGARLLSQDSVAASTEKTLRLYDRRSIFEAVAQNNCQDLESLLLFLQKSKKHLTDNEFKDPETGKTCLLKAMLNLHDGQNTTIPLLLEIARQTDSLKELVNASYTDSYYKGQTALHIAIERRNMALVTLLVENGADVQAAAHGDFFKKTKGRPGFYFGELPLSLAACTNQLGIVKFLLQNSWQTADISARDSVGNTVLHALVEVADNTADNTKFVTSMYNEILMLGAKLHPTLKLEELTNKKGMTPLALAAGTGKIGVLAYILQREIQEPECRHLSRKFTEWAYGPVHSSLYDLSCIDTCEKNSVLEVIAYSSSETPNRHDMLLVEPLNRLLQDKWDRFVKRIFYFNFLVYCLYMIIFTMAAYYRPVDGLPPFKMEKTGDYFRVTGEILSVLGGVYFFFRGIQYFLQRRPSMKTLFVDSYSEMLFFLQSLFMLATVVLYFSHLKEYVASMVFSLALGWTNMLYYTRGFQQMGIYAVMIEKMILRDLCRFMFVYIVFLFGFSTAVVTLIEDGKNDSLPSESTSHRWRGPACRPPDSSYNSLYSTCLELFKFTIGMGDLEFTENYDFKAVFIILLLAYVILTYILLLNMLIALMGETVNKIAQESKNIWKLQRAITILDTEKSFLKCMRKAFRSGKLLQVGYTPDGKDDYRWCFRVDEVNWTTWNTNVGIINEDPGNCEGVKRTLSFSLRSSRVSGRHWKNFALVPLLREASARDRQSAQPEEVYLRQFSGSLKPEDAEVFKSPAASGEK

As to `C=C(C)[C@@H]1CCC(C)=C[C@H]1c1c(O)cc(CCCCC)cc1O` [CBD, cannabidiol], the “agonism of TRPV1” value in data set [1] was “most potent and efficacious phytocannabinoid agonist of TRPV1”. As to `CN1CCCC1c1cccnc1` (stereo not shown) [nicotine], in data set [2], the “activation of TRPA1” value is reported as “known activator of TRPA1”. For the compound `CCCCCc1cc(O)c2c(c1)OC(C)(C)[C@@H]1CCC(C)=C[C@@H]21` [Δ^9-THC, Δ^9-tetrahydrocannabinol], the “activation of TRPV2” value in data set [3] is recorded as “most potent phytocannabinoid for activating TRPV2”. Moreover, in data set [2], the “activation of TRPA1” value is “also activates TRPA1”.
